Reference: patent publication US6218417A, “Ace-inhibitor nitric salts” (priority 1997, dated 2001)
Counter-ions that a name gives are not always drawn.

Assays:
[1] = test system: bronchial spasm induced by substance P; assay: Bronchial spasm induced by substance P (Subissi et al.; Konzett); assay type: in vivo, female Guinea pigs; details: for Tidal air change % in bronchial spasm induced by substance P: 30 minutes before substance P (200 μg/Kg)
Procedure: Activity was evaluated measuring the strengthening of bronchial spasm induced by substance P, determined in accordance with the method of Subissi et al., Br. J. Pharmacol. 100, 502-6, 1990. The model described by Subissi is predictive of bronchial side effects due to the administration of ACE inhibitors.
Four groups (6 animals/group) of female Guinea pigs weighing about 300 to 400 g were anaesthetised with ethyl urethane (200 mg/Kg) under artificial pressure at constant positive pressure. The compounds were administered intra-peritoneally 30 minutes before substance P. The salt doses administered were the same as in Example 4. The changes in tidal air were then measured in accordance wuth the method of Konzett, Arch. Exp. Pathol. Pharmacol. 195, 71, 1940, before and after the administration of substance P (200 μg/Kg), with or without the test salts, i.e. Enalapril maleate and nitrate.

[2] = test system: platelet aggregation (collagen-induced); assay: Platelet-antiaggregating activity, in-vivo collagen model (Pinon et al.); design: species or system rats; details: 10 mg/Kg/os per day (as Enalapril cation) for five days; collagen 2 mg/Kg i.v.; referred to control group
Procedure: The in-vivo model described by Pinon et al., J. Pharm. Methods 12, 79-84, 1984, was used.
Two groups of 6 rats each, weighing about 200 to 250 g, were treated with an oral. dose of 10 mg/Kg/die of Enalapril maleate or nitrate respectively (the dose is referred to the amount of Enalapril cation in the salt) for five days, while a third group acted as a control group. About 18 hours before the last treatment, the animals were fasted. One hour after this treatment the animals were anaesthetised with 10% ethyl urethane (1 g/Kg intraperitoneally) and the left jugular vein and the right carotid artery were cannulated. Collagen (type 6, Sigma) was then administered intravenously at a dose of 2 mg/Kg. Three minutes later two blood samples, A and B, were collected from the carotid artery of each animal.
1.6 ml of EDTA/formalin buffer (24 mM tetrasodium EDTA, 1.3 mM KH2 PO4, 13.4 mM Na2 HPO4) was added to the first sample (sample A) containing 0.4 ml of blood.
The second blood sample (sample B) had the same volume as the previous sample (0.4 ml of blood) but, instead of the buffer, 1.6 ml of a saline solution (physiological NaCl solution) was added. […]
A microscope platelet count was then performed. […] The results shown in Table III are expressed as a % of platelet aggregation and are referred to the % value obtained in the control group.

[3] = test system: angiotensin-I-induced hypertension; assay: Antihypertensive activity: inhibition of angiotensin I-induced hypertension (Laubie et al.); assay type: in vivo, rats; details: angiotensin I 100 μg/Kg i.v.
Procedure: The antihypertensive activity of the nitrate salts of the compounds of the invention was determined in accordance with the method of Laubie et al., J. Cardiovasc. Pharmacol. 6, 1076, 1984. No 6 rats weighing about 200 to 250 g were used per experimental group. Four groups were formed, which were intraperitoneally treated respectively as shown below:
The doses are referred to the amount of Enalapril (cation) in the salt. The antihypertensive response was evaluated as per-cent inhibition of the hypertension induced by the administration of a dose of 100 μg/Kg i.v. of angiotensin I as described in the above article.

[4] = 100 μg/Kg/i.p. (as Enalapril cation)
[5] = 300 μg/Kg/i.p. (as Enalapril cation)

CCOC(=O)[C@H](CCc1ccccc1)N[C@@H](C)C(=O)N1CCC[C@H]1C(=O)O [Enalapril maleate, reference compound]
Tidal air change % in bronchial spasm induced by substance P ([1]; 100 μg/Kg/i.p.): +16% | Tidal air change % in bronchial spasm induced by substance P ([1]; 300 μg/Kg/i.p.): +28% | Antiaggregating activity % [2]: 5% | Inhibition % for angiotensin-I-induced hypertension [3, 4]: 18% | Inhibition % for angiotensin-I-induced hypertension [3, 5]: 55%

CCOC(=O)[C@H](CCc1ccccc1)N[C@@H](C)C(=O)N1CCC[C@H]1C(=O)O [Enalapril nitrate, (S)-1-[N-[1-(ethoxycarbonyl)-3-phenylpropyl]-L-alanyl]-L-proline]
Tidal air change % in bronchial spasm induced by substance P ([1]; 100 μg/Kg/i.p.): -5% | Tidal air change % in bronchial spasm induced by substance P ([1]; 300 μg/Kg/i.p.): -7% | Respiratory profile ([1]; compared to Enalapril maleate, 100 and 300 μg/Kg i.p.): better respiratory profile than Enalapril maleate at both tested doses | Antiaggregating activity % [2]: 58% | Inhibition % for angiotensin-I-induced hypertension [3, 4]: 35% | Inhibition % for angiotensin-I-induced hypertension [3, 5]: 67%
